In patent publication US12239645B2, “Targeted dosing for the treatment of complement mediated disorders” (Achillion Pharmaceuticals, Inc., priority 2018, dated 2025):
In brackets after ≈: the same amount, converted by molar mass. Several values for one entry are separate records, joined by “and”; a condition that tells them apart may be missing. Equal values may be shown once. Read-outs that look alike come from different tables or passages of the source.

Key:
Type in all cases: in vivo, human
[1] = test system: complement alternative pathway (AP) activity; assay: SAD study: ex vivo serum AP hemolysis assay and PK-PD analysis; details: for time approximately 90% or greater inhibition maintained after dosing: AP hemolysis
Experimental: For human serum preparation, venous blood was collected by standard clinical procedures into a Gold Top, SST vacutainer (BD Vacutainer). After clotting at room temperature for 30 minutes or longer, the tube was centrifuged at ˜1,300×g at 4° C. for 15 minutes to separate the serum from the clot. Serum was then aliquotted into pre-chilled cryovials (50-200 μl/vial) for storage at ˜80° C. Each vial was thawed only once and used for each complement related assay, the remaining sample was discarded without further usage. For preparation of plasma, venous blood was collected into a Lavender Top, K2EDTA vacutainer and gently inverted several times to allow for complete mixing of the blood sample with the anticoagulant. The tube was placed in an ice-bath for 30 minutes and then centrifuged for 15 minutes at ˜1300×g at 4° C. to separate the plasma from the blood cells. Plasma was divided into aliquots in pre-chilled cryogenic storage tubes and stored at a ˜80° C. freezer within one hour of having collected the blood sample. For delivery, tubes containing either serum or plasma were shipped in the presence of dry ice without additional freeze-thaw cycle.
Ex vivo serum AP hemolysis assays were conducted in 96-well microtiter plates divided into two parts, one for hemolysis and the other for serum background color subtraction. Briefly, a suspension of rabbit red blood cells (RBCs) was centrifuged at 800×g at 4° C. for 3 minutes and the supernatant was removed to get rid of the RBC debris. The RBC cell pellet was re-suspended gently with pre-chilled gelatin veronal buffer (GVB0) containing 10 mM MgEGTA to a density of 5×10^8 cells/mL. Other controls including buffer, spontaneous rabbit RBC lysis, 100% RBC lysis (in water), and normal serum control were set up alongside the test samples as well. Serum was placed in a 37° C. water-bath until mostly thawed and immediately transferred to ice bath. 20% serum was prepared with GVB0-MgEGTA buffer and kept at ice bath before testing. Reactions were carried out in a 96 well plate by mixing 50 μl of 20% serum with equal volume of GVB0-MgEGTA buffer and then quickly adding 20 μl of RBC suspension. The plate was shaken on a microtiter plate shaker for 5 seconds and then incubated at 37° C. for 30 minutes. Halfway during the incubation period, the plate was shaken for another 5 seconds as described above. At the end of the incubation, the plate was centrifuged at 800×g at 4° C. for 3 minutes to pellet the un-lysed rabbit RBCs. 80 μl of supernatant was removed carefully from all wells and transferred to a clear flat-bottom microtiter plate for the measurement of optical absorbance at 405 nm (A405) in a Molecular Devices Spectramax Plus plate reader. AP hemolysis in each well was calculated relative to the activity of the NHS reference sample formulas as follows: Hemolysis (%)=((Hm−Bk)−(Sp−Bf))/((NH−BkNH)−(Sp−Bf))×100%
where Hm=A405 in the hemolysis well, Bk=A405 in the corresponding background well, Sp=mean A405 in the spontaneous hemolysis wells, Bf=mean A405 in the buffer alone wells, NH=mean A405 in the reference NHS wells, and BkNH=mean A405 in the corresponding background wells.
The PK-PD relationship was evaluated using time-matched plasma Compound 1 concentrations and serum AP inhibition values by non-linear regression with GraphPad Prism (La Jolla, CA) using the following two models: • 1. […] Pharmacodynamic and Pharmacokinetic Results AP Activity Measured with AP Hemolysis […]

[2] = test system: complement alternative pathway (AP) functional activity; assay: SAD study: alternative pathway functional activity by AP Wieslab assay
Experimental: […] were dosed and evaluated in 4 dose groups with ten subjects receiving placebo (Table 1). The first dose group had 6 active and 6 placebo subjects; subsequent groups had 6 active and 2 placebo subjects each. Each group was followed for 28 days after dosing. All subjects were monitored for safety through the last scheduled visit at Day 28. Blood and urine samples were collected at predefined time points from Days 1 to 4 to determine plasma and urine concentrations of Compound 1 and from Days 1 to 7 to determine complement related activities. Results of serum AP activity measured by AP Wieslab assay as well as plasma Bb, factor D level and several other PD biomarkers were determined.
For all subjects, blood samples were collected at specific protocol-defined time points from Day 1 to 7 to determine serum AP activity ex vivo using AP hemolysis assay and AP Wieslab assay.
A graphical display of mean complement AP functional activity (% relative to positive control) through Day 7 (reported in days) and within 24 hours of dosing (by randomized treatment group and overall) can be found in FIG. 8B and FIG. 8A, respectively.

[3] = MAD study, two additional single-dose cohorts: pharmacokinetics; details: for AUC(0-t) / Cmax / Tmax / AUC(0-inf): human, plasma, oral; for AUC(0-inf): read-out: AUC0-inf, Mean
Experimental: A multiple ascending dose (MAD) study of Compound 1 with two additional single-dose cohorts was also completed. […] Secondary objectives included evaluation of the pharmacokinetic (PK) profile and the relationship between Compound 1 PK and pharmacodynamic (PD) characteristics, that is, the inhibition of complement alternative pathway (AP) activity (PK/PD). In the MAD study, multiple-dose pharmacokinetics and pharmacodynamics of Compound 1 were evaluated in four dose groups administered Compound 1 (40, 80, 120 and 200 mg BID) in the fasted state for 14-days (Table 3). Eight subjects received active drug in each group; eight subjects received placebo in the first dose group (40 mg) and two subjects received placebo in each of the other three dose groups. Two additional cohorts were administered Compound 1 at single doses of 240 mg (fasted subjects) and 120 mg (fed subjects) (Table 3). The two single-dose cohorts each comprised six subjects receiving active drug and two subjects receiving placebo. Plasma and serum samples for PK and PD assessment were collected on selected days prior to dosing (at local troughs), and on days 1, 7, and 14 at 0.5-hour to 2-hour intervals for more detailed assessment.

[4] = 120 mg single dose, fed moderate fat meal
[5] = 120 mg single dose, moderate-fat meal vs fasted (SAD)

t½term, Mean [3, 4]: 9.39 h
mean AUC lower in the fed state vs fasted [3, 5]: 00.8%
mean Cmax lower in the fed state vs fasted [3, 5]: 2.2%
t½term, Mean ([3]; 240 mg single dose, fasted): 9.33 h
AUC(0-t) ([3]; 120 mg, 120 mg single dose, fed moderate fat meal, read-out: AUC(0-12), Mean): 1250 ng·h/mL
AUC(0-t) ([3]; 120 mg, 120 mg single dose, fed moderate fat meal, read-out: AUC(0-72), Mean): 1490 ng·h/mL
AUC(0-t) ([3]; 240 mg, 240 mg single dose, fasted, read-out: AUC(0-12), Mean): 2770 ng·h/mL
AUC(0-t) ([3]; 240 mg, 240 mg single dose, fasted, read-out: AUC(0-72), Mean): 3510 ng·h/mL
Cmax [3, 4]: 309 ng/mL
Tmax [3, 4]: 2.83 h
AUC(0-inf) [3, 4]: 1490 ng·h/mL
Cmax ([3]; 240 mg single dose, fasted): 594 ng/mL
Tmax ([3]; 240 mg single dose, fasted): 2.67 h
AUC(0-inf) ([3]; 240 mg single dose, fasted): 3520 ng·h/mL
Structure (SMILES): CC(=O)c1nn(CC(=O)N2[C@H](C(=O)Nc3nc(Br)ccc3C)C[C@@]3(C)C[C@@H]23)c2ccc(-c3cnc(C)nc3)cc12 [Compound 1, (1R,3S,5R)-2-(2-(3-acetyl-5-(2-methylpyrimidin-5-yl)-1H-indazol-1-yl)acetyl)-N-(6-bromo-3-methylpyridin-2-yl)-5-methyl-2-azabicyclo[3.1.0]hexane-3-carboxamide]
time approximately 90% or greater inhibition maintained after dosing ([1]; Group 1, 40 mg single dose): at least 4 hours
time approximately 90% or greater inhibition maintained after dosing ([1]; Groups 2 and 3, 80 and 120 mg single dose): at least 8 hours
EC50 ([1]; Homo sapiens, simple Emax model, all SAD dose cohorts, read-out: EC50 (plasma concentration vs serum AP inhibition)): 0.0111 µg/mL (≈ 0.0184 µM)
EC50 (plasma concentration vs serum AP inhibition) ([1]; simple Emax model, all SAD dose cohorts): ~0.01 µg/mL and 0.011 µg/mL
inhibition of AP activity after dosing ([1]; single dose 40, 80 or 120 mg, all groups): complete inhibition
time mean inhibition of 90% or greater maintained post-dosing ([2]; 40 mg dose group): at least 6 hours
time of nadir in AP functional activity post-dose ([2]; 40 mg dose group): 1.5 h
lowest mean (±SD) AP functional activity (relative to positive control) ([2]; 40 mg single dose): 1.25 (±1.153) %
time of nadir in AP functional activity post-dose ([2]; 80 mg and 120 mg dose groups): 3 h
lowest mean (±SD) AP functional activity (relative to positive control) ([2]; 80 mg single dose): 0.13 (±0.097) %
lowest mean (±SD) AP functional activity (relative to positive control) ([2]; 120 mg single dose): 0.09 (±0.102) %
Inhibition of AP functional activity ([2]; all subjects, by 2 hours post-dose): > 90%
Inhibition of AP functional activity ([2]; all treated subjects, 0.5 hours post-dose): > 80%
time mean inhibition of 90% or greater maintained post-dosing ([2]; higher dose groups studied): at least 10 hours
